MIC, EC50 and IC50 data for four molecules are collected here from US20240270762A1, “PENICILLIN-BINDING PROTEIN INHIBITORS” (priority 2021, published 2024).

Values after ≈ are worked out from the molar mass of the structure shown.

In general, EC50 refers to the concentration at which the effect is half-maximal. Higher therefore signals lower potency in that assay.

The subject of one assay is N. gonorrhoeae WHO G. In words: Liquid broth MIC in Fastidious broth. The conditions noted are these: Neisseria gonorrhoeae, read-out: Minimum Inhibitory Concentration (MIC), N. gonorrhoeae WHO G.
For a further assay, the system named is P. aeruginosa ATCC 27853. In words: microbe, parasite or virus in culture. The conditions noted are these: Pseudomonas aeruginosa, ATCC27853, read-out: Minimum inhibitory concentration, P. aeruginosa ATCC 27853. It counts as cell-based.
Assay [1] relates to B. thailandensis ATCC 700388. In words: microbe, parasite or virus in culture. It counts as cell-based. The note with it: Burkholderia thailandensis, ATCC700388, read-out: Minimum inhibitory concentration (MIC), B. thailandensis ATCC 700388.
For a further assay, the system named is N. gonorrhoeae WHO Z. In words: Liquid broth MIC in Fastidious broth. The note with it: Neisseria gonorrhoeae, read-out: Minimum Inhibitory Concentration (MIC), N. gonorrhoeae WHO Z.
The subject of assay [2] is N. gonorrhoeae ATCC 49226. In words: Liquid broth MIC in Fastidious broth. The conditions noted are these: Neisseria gonorrhoeae, ATCC49226, read-out: Minimum Inhibitory Concentration (MIC), N. gonorrhoeae ATCC 49226.
A further assay concerns N. gonorrhoeae MS11. In words: Liquid broth MIC in Fastidious broth. The conditions noted are these: Neisseria gonorrhoeae, MS11, read-out: Minimum Inhibitory Concentration (MIC), N. gonorrhoeae MS11.
The target in assay [3] is T1, PBP3 from Escherichia coli (K-12) (Escherichia coli, UniProt P0AD68).
T1 construct: made in house
T1 sequence (P0AD68 1-577): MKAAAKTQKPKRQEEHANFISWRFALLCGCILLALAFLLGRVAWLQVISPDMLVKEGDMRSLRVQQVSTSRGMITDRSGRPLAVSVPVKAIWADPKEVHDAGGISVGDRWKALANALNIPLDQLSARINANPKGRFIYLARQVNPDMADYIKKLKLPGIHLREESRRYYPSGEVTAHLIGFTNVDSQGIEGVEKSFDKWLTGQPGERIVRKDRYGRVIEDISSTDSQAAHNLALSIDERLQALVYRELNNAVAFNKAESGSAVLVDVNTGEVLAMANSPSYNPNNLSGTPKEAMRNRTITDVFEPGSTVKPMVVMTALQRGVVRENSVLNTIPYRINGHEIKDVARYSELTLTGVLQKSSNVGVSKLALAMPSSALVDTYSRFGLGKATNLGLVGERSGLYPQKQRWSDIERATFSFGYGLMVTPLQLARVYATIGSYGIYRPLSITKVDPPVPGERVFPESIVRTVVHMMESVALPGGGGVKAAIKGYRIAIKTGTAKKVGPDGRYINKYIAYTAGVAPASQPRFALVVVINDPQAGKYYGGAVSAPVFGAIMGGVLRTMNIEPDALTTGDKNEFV
In words: Bocillin-FL fluorescence polarization competition binding, E. coli PBP3. In outline:
(§1)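 Purified PBP was preincubated with inhibitor (E. coli PBP3 1.5 μM, 30 min; P. aeruginosa PBP3 0.75 μM, A. baumannii PBP3 0.2 μM and PBP1a 1 μM, 15 min), then Bocillin-FL (0.1 μM; 0.05 μM for PBP1a) added and FP read up to 60 min. EC50 = 50% loss of bound probe.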

The next assay concerns N. gonorrhoeae CDC-0197. In words: Liquid broth MIC in Fastidious broth. The note with it: Neisseria gonorrhoeae, CDC0197, read-out: Minimum Inhibitory Concentration (MIC), N. gonorrhoeae CDC-0197.
The test system of assay [4] is B. humptydooensis ATCC BAA-2767. In words: microbe, parasite or virus in culture. It counts as cell-based. The conditions noted are these: Burkholderia humptydooensis, ATCCBAA2767, read-out: Minimum inhibitory concentration (MIC), B. humptydooensis ATCC BAA-2767.
For assay [5], the target named is T2, PBP3 from Pseudomonas aeruginosa (PAO1) (Pseudomonas aeruginosa, UniProt G3XD46).
T2 construct: made in house
T2 sequence (G3XD46 whole entry): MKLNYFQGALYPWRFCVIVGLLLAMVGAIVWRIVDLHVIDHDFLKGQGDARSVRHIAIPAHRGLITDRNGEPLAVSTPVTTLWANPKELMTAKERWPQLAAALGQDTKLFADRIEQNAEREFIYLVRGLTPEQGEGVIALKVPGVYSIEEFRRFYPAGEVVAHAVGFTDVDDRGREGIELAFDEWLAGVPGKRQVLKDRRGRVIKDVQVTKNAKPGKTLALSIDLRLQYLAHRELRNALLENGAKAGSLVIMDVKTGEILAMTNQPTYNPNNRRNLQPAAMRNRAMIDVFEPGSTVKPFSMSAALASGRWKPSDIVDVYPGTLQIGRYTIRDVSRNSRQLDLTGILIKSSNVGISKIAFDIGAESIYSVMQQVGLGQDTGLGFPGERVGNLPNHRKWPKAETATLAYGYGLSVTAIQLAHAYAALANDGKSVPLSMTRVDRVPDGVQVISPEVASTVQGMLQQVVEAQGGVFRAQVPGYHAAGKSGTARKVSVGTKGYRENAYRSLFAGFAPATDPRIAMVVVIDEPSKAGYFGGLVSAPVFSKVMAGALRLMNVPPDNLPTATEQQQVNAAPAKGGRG
In words: Bocillin-FL fluorescence polarization competition binding, P. aeruginosa PBP3. The conditions noted are these: Binding affinity to P. aeruginosa PBP3; fluorescence polarization competition binding assay using Bocillin-FL; read-out: P. aeruginosa PBP3 Potency. An outline of the steps: as §1

Another assay deals with A. baumannii CDC-0045. In words: microbe, parasite or virus in culture. It counts as cell-based. The note with it: Acinetobacter baumannii, CDC0045, read-out: MIC, A. baumannii CDC-0045.
The next assay deals with N. gonorrhoeae FA1090. In words: Liquid broth MIC in Fastidious broth. The conditions noted are these: Neisseria gonorrhoeae, FA1090, read-out: Minimum Inhibitory Concentration (MIC), N. gonorrhoeae FA 1090.
A further assay relates to A. baumannii ATCC 19606. In words: microbe, parasite or virus in culture. It counts as cell-based. The note with it: Acinetobacter baumannii, ATCC19606, read-out: MIC, A. baumannii ATCC 19606.
Assay [6] relates to P. aeruginosa (ΔmexAB-oprM). In words: Broth microdilution MIC in iron-depleted CAMHB (IDM). The conditions noted are these: Pseudomonas aeruginosa; iron-depleted CAMHB (IDM); […]; read-out: Minimum inhibitory concentration, P. aeruginosa ΔmexAB-oprM. It counts as cell-based.
The next assay concerns N. gonorrhoeae WHO L. In words: Liquid broth MIC in Fastidious broth. The conditions noted are these: Neisseria gonorrhoeae, read-out: Minimum Inhibitory Concentration (MIC), N. gonorrhoeae WHO L.

Experimental for N. gonorrhoeae CDC-0197: ATCC 49226, FA1090, MS11, WHO G, WHO L, and WHO M produce wild type or wild-type like PBP2. WHO K, WHO X, WHO Z, WHO Q, and CDC-0197 produce mosaic PBP2. Liquid broth-based assays were used for antibacterial testing of PBP inhibitors in Neisseria gonorrhoeae. Briefly, cryo-preserved bacterial cultures of clinical strains were streaked for isolation on Chocolate Agar (72 g/L (2×) GC Agar Base (BD #228950) and 2% (2×) Hemoglobin was autoclaved at 121° C. for 20 minutes to sterilize. Once cooled to ˜50° C. the 2×GC Agar Base and 2× Hemoglobin solutions are combined and 1% IsoVitaleX Enrichment (BD #211876) was added to the solution). Strains were incubated at 36° C. and 5% CO2 to allow growth of colonies, 24 hours before inoculum preparation. 2-fold serial dilutions of test compounds were conducted in a 96 well plate with a final volume of 75 μL per well at 2-fold the final desired concentration in Fastidious broth (Remel #R07664). For preparation of assay inoculum, a direct suspension was prepared by aseptically swabbing 10-15 colonies from agar plates into culture tubes containing 2 mL of fresh sterile saline. After the dilution plates were set up, direct suspensions were then diluted in a cuvette containing sterile saline and the optical density was measured at 600 nm. Inocula were diluted such that 75 μL of this culture in Fastidious broth results in a starting bacterial concentration of 5×10^5 CFU/mL when added to the dilution plates. The plates were incubated for ˜24 hours at 36° C. and 5% CO2.

`O=C(NCCN1CCN(C(=O)NC(C(=O)N[C@H]2Cc3ccc(F)c(C(=O)O)c3OB2O)c2cc(F)c(O)c(O)c2Cl)C(=O)C1=O)c1ccc(O)cc1` (stereo partly drawn) [Example 214, (3R)-3-(2-(2-chloro-5-fluoro-3,4-dihydroxyphenyl)-2-(4-(2-(4-hydroxybenzamido)ethyl)-2,3-dioxopiperazine-1-carboxamido)acetamido)-7-fluoro-2-hydroxy-3,4-dihydro-2H-benzo[e][1,2]oxaborinine-8-carboxylic acid]: the MIC in the assay with N. gonorrhoeae WHO G was 4 to 8 µg/mL (≈ 5.36 to 10.7 µM); in the assay on P. aeruginosa ATCC 27853, 2 to 4 µg/mL (≈ 2.68 to 5.36 µM); in [1], 8 to 16 µg/mL (≈ 10.7 to 21.5 µM); in the assay with N. gonorrhoeae WHO Z, 16 to 32 µg/mL (≈ 21.5 to 42.9 µM); in assay [2] it was 4 to 8 µg/mL (≈ 5.36 to 10.7 µM); in the assay with N. gonorrhoeae MS11, 16 to 32 µg/mL (≈ 21.5 to 42.9 µM). In addition, the MIC with N. gonorrhoeae CDC-0197 was 16 to 32 µg/mL (≈ 21.5 to 42.9 µM); in [4], < 1 µg/mL; in the assay with A. baumannii CDC-0045, 2 to 4 µg/mL (≈ 2.68 to 5.36 µM); in the assay with N. gonorrhoeae FA1090, 1 to 2 µg/mL (≈ 1.34 to 2.68 µM); in the assay with A. baumannii ATCC 19606, < 1 µg/mL; in [6], < 1 µg/mL. In addition, in the assay with N. gonorrhoeae WHO L, the MIC is > 64 µg/mL. Moreover, in assay [3], the EC50 was < 10 µM. In assay [5], the IC50 is < 10 µM.
For `O=C(NCCN1CCN(C(=O)NC(C(=O)N[C@H]2Cc3ccc(F)c(C(=O)O)c3OB2O)c2cc(F)c(O)c(O)c2Cl)C(=O)C1=O)c1cccc(O)c1` (stereo partly drawn) [Example 215, (3R)-3-(2-(2-chloro-5-fluoro-3,4-dihydroxyphenyl)-2-(4-(2-(3-hydroxybenzamido)ethyl)-2,3-dioxopiperazine-1-carboxamido)acetamido)-7-fluoro-2-hydroxy-3,4-dihydro-2H-benzo[e][1,2]oxaborinine-8-carboxylic acid], the MIC in the assay on N. gonorrhoeae WHO G lay within 4 to 8 µg/mL (≈ 5.36 to 10.7 µM); in the assay on P. aeruginosa ATCC 27853, 2 to 4 µg/mL (≈ 2.68 to 5.36 µM); in assay [1], 8 to 16 µg/mL (≈ 10.7 to 21.5 µM); in the assay with N. gonorrhoeae WHO Z it was 16 to 32 µg/mL (≈ 21.5 to 42.9 µM); in assay [2], 16 to 32 µg/mL (≈ 21.5 to 42.9 µM); with N. gonorrhoeae MS11, 16 to 32 µg/mL (≈ 21.5 to 42.9 µM). Besides, the MIC is 16 to 32 µg/mL (≈ 21.5 to 42.9 µM) with N. gonorrhoeae CDC-0197; < 1 µg/mL in [4]; 8 to 16 µg/mL (≈ 10.7 to 21.5 µM) with A. baumannii CDC-0045; 1 to 2 µg/mL (≈ 1.34 to 2.68 µM) with N. gonorrhoeae FA1090; < 1 µg/mL with A. baumannii ATCC 19606; < 1 µg/mL in [6]. Also, the MIC in the assay with N. gonorrhoeae WHO L was > 64 µg/mL. Besides, in assay [3], the EC50 was < 10 µM. Further, the IC50 in [5] was < 10 µM.
On to `O=C(NCCN1CCN(C(=O)NC(C(=O)N[C@H]2Cc3ccc(F)c(C(=O)O)c3OB2O)c2cc(F)c(O)c(O)c2Cl)C(=O)C1=O)c1ccncc1` (stereo partly drawn) [Example 216, (3R)-3-(2-(2-chloro-5-fluoro-3,4-dihydroxyphenyl)-2-(4-(2-(isonicotinamido)ethyl)-2,3-dioxopiperazine-1-carboxamido)acetamido)-7-fluoro-2-hydroxy-3,4-dihydro-2H-benzo[e][1,2]oxaborinine-8-carboxylic acid], for which the MIC is 4 to 8 µg/mL (≈ 5.47 to 10.9 µM) with N. gonorrhoeae WHO G; 2 to 4 µg/mL (≈ 2.74 to 5.47 µM) with P. aeruginosa ATCC 27853; 2 to 4 µg/mL (≈ 2.74 to 5.47 µM) in [1]; 16 to 32 µg/mL (≈ 21.9 to 43.8 µM) with N. gonorrhoeae WHO Z; 16 to 32 µg/mL (≈ 21.9 to 43.8 µM) in [2]; 16 to 32 µg/mL (≈ 21.9 to 43.8 µM) in the assay on N. gonorrhoeae MS11. Moreover, the MIC in the assay with N. gonorrhoeae CDC-0197 is 16 to 32 µg/mL (≈ 21.9 to 43.8 µM); in [4] it was < 1 µg/mL; in the assay with A. baumannii CDC-0045, 2 to 4 µg/mL (≈ 2.74 to 5.47 µM); with N. gonorrhoeae FA1090 it was 4 to 8 µg/mL (≈ 5.47 to 10.9 µM); in the assay on A. baumannii ATCC 19606, < 1 µg/mL; in assay [6], < 1 µg/mL. In addition, the MIC in the assay with N. gonorrhoeae WHO L was > 64 µg/mL. The EC50 in [3] was < 10 µM. Moreover, the IC50 in assay [5] was < 10 µM.
With `O=C(NCCN1CCN(C(=O)NC(C(=O)N[C@H]2Cc3ccc(F)c(C(=O)O)c3OB2O)c2cc(F)c(O)c(O)c2Cl)C(=O)C1=O)c1cccnc1` (stereo partly drawn) [Example 217, (3R)-3-(2-(2-chloro-5-fluoro-3,4-dihydroxyphenyl)-2-(4-(2-(nicotinamido)ethyl)-2,3-dioxopiperazine-1-carboxamido)acetamido)-7-fluoro-2-hydroxy-3,4-dihydro-2H-benzo[e][1,2]oxaborinine-8-carboxylic acid], the MIC was in the range of 16 to 32 µg/mL (≈ 21.9 to 43.8 µM) in the assay with N. gonorrhoeae WHO G; 2 to 4 µg/mL (≈ 2.74 to 5.47 µM) in the assay on P. aeruginosa ATCC 27853; 2 to 4 µg/mL (≈ 2.74 to 5.47 µM) in assay [1]; 16 to 32 µg/mL (≈ 21.9 to 43.8 µM) with N. gonorrhoeae WHO Z; 16 to 32 µg/mL (≈ 21.9 to 43.8 µM) in assay [2]; 16 to 32 µg/mL (≈ 21.9 to 43.8 µM) in the assay on N. gonorrhoeae MS11. The MIC is 16 to 32 µg/mL (≈ 21.9 to 43.8 µM) in the assay on N. gonorrhoeae CDC-0197; < 1 µg/mL in assay [4]; < 1 µg/mL in the assay with A. baumannii CDC-0045; 1 to 2 µg/mL (≈ 1.37 to 2.74 µM) in the assay with N. gonorrhoeae FA1090; 2 to 4 µg/mL (≈ 2.74 to 5.47 µM) with A. baumannii ATCC 19606; < 1 µg/mL in assay [6]. In addition, the MIC in the assay with N. gonorrhoeae WHO L was > 64 µg/mL. For the same molecule, the EC50 in [3] is < 10 µM. Besides, the IC50 in assay [5] was < 10 µM.
